Measured values reported in patent publication US9234000B2, “Benzylamine derivatives as inhibitors of plasma kallikrein” (KalVista Pharmaceuticals Limited, priority 2011, dated 2016).
Converted amounts (≈) assume the structure as drawn.

How the values were obtained:
[1] = Determination of thermodynamic solubility in phosphate buffer; type: physicochemical; conditions: pH 7.4, aqueous buffer, thermodynamic from solid, ammonium phosphate buffer pH7.4, 290 mOsm, 37° C., nominal 1 mg/mL, read-out: Solubility in PO4 buffer
Experimental: Determination of Thermodynamic Solubility in Phosphate Buffer
The thermodynamic solubility of compound was determined in Ammonium Phosphate Buffer (pH7.4, 290 mOsm). Compounds were made up at a nominal concentration of 1 mg/mL, vortexed then placed on a shaker for 1 h, 37° C. at approximately 950 rpm. Following incubation samples were transferred to eppendorf tubes and centrifuged at 15,000 g (r.c.f.) for 10 minutes at 37° C. The concentration of compound in the supernatant was determined by LC-MS/MS analysis using a calibration line prepared from a DMSO stock.

[2] = target: Human plasma kallikrein (Homo sapiens (Human), UniProt P03952); experiment: Determination of the IC50 for plasma kallikrein; type: biochemical; conditions: fluorogenic substrate H-DPro-Phe-Arg-AFC, 37° C., read-out: IC50 (human PKal)
Outline: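 Residual activity (initial rate, absorbance at 410 nm) gave the IC50. Reactions at 37° C combined human plasma kallikrein, substrate H-DPro-Phe-Arg-AFC and a range of inhibitor concentrations.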

[3] = physchem; conditions: for solubility in PO4 buffer: pH 7
Experimental: Determination of the Kinetic Solubility in Phosphate Buffer
After shaking for approximately 30 seconds the reduction in light transmission of these samples, at 650 nm, was measured (Molecular Devices Spectromax UV/visible spectrophotometer). A second measurement was taken at approximately 30 seconds later.

[4] = target: Human KLK1 (Homo sapiens (Human), UniProt P06870); experiment: Determination of the IC50 for KLK1; type: biochemical; conditions: Human KLK1, 37° C., substrate H-DVal-Leu-Arg-AFC; Table 12
Outline: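 hKLK1 + H-DVal-Leu-Arg-AFC, 37° C, varied cpd conc. Initial rate by A410 change → residual activity → IC50.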

Human plasma kallikrein, sequence (P03952 391-638): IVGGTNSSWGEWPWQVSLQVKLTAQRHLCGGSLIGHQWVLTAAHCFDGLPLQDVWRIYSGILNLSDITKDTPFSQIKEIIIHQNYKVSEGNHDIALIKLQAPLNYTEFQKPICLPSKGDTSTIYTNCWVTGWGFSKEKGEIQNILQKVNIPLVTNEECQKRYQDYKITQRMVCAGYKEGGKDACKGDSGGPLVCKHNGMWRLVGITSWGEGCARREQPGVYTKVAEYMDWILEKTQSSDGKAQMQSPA
Human plasma kallikrein, sequence (P03952 20-390 partner): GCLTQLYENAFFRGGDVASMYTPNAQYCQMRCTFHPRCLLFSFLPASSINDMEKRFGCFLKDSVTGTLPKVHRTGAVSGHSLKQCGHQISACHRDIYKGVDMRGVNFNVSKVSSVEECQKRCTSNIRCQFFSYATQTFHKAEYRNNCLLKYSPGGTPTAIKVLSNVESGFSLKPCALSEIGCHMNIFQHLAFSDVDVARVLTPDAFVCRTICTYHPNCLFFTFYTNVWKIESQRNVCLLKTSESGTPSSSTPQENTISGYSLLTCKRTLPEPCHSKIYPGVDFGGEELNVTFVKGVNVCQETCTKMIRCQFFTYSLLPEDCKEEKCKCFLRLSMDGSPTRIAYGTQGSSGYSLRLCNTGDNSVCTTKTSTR
Human KLK1, sequence (P06870 25-262): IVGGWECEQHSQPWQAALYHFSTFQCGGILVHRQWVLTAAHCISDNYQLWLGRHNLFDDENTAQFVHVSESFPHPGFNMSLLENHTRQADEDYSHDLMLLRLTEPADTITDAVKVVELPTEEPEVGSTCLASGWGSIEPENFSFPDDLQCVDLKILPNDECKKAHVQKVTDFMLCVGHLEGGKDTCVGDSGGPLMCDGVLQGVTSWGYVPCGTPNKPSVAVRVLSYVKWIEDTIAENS

Compound	solubility at 1 h [1] [µg/mL]	IC50 [2] [nM]	solubility in PO4 buffer [3] [µM]	IC50 [4] [nM]	solubility ([3]; pH 7, aqueous buffer, kinetic from dmso stock) [µM]
CCCOc1ccc(C[C@@H](NC(=O)c2ccccc2)C(=O)N[C@@H](Cc2ccccc2)C(=O)NCc2ccc(CN)cc2)cc1 [Example 131, N-[(R)-1-[(S)-1-(4-Aminomethyl-benzylcarbamoyl)-2-phenyl-ethylcarbamoyl]-2-(4-propoxy-phenyl)-ethyl]-benzamide]	0.56 (≈ 0.945 µM)	–	–	–	–
CCOc1ccc(C[C@@H](NC(=O)c2ccc(OC)cc2)C(=O)N[C@@H](Cc2ccccc2)C(=O)NCc2ccc(CN)cc2)cc1 [Example 95, N-[(R)-1-[(S)-1-(4-Aminomethyl-benzylcarbamoyl)-2-phenyl-ethylcarbamoyl]-2-(4-ethoxy-phenyl)-ethyl]-4-methoxy-benzamide]	2.05 (≈ 3.37 µM)	–	–	–	–
CCOc1ccc(C[C@@H](NC(=O)CC)C(=O)N(C)[C@@H](Cc2ccccc2)C(=O)NCc2ccc(CN)c(F)c2)cc1 [Example 32, (S)-N-(4-Aminomethyl-3-fluoro-benzyl)-2-{[(R)-3-(4-ethoxy-phenyl)-2-propionylamino-propionyl]-methyl-amino}-3-phenyl-propionamide]	–	200	> 235	> 10000	–
CN(CC(=O)O)[C@H](CC1CCCCC1)C(=O)N[C@@H](Cc1ccccc1)C(=O)NCc1ccc(CN)c(F)c1 [Example 42, ({(R)-1-[(S)-1-(4-Aminomethyl-3-fluoro-benzylcarbamoyl)-2-phenyl-ethylcarbamoyl]-2-cyclohexyl-ethyl}-methyl-amino)-acetic acid]	–	530	> 235	> 10000	–
CCOc1ccc(C[C@@H](NC(=O)CC)C(=O)N2CC[C@H](c3ccccc3)[C@H]2C(=O)NCc2ccc(CN)cc2)cc1 [Example 67, (2S,3R)-1-[(R)-3-(4-Ethoxy-phenyl)-2-propionylamino-propionyl]-3-pheny-pyrrolidine-2-carboxylic acid 4-aminomethyl-benzylamide]	–	1600	> 235	> 10000	–
CN(C)[C@H](CC1CCCCC1)C(=O)N[C@@H](Cc1ccccc1)C(=O)NCc1ccc(CN)cc1 [Example 9, (R)-N-[(S)-1-(4-Aminomethyl-benzylcarbamoyl)-2-phenyl-ethyl]-3-cyclohexyl-2-dimethylamino-propionamide]	–	2000	> 235	> 1000	–
CCOc1ccc(C[C@@H](NS(=O)(=O)c2ccccc2)C(=O)N[C@@H](Cc2ccccc2)C(=O)NCc2ccc(CN)cc2)cc1 [Example 15, (R)-N-[(S)-1-(4-Aminomethyl-benzylcarbamoyl)-2-phenyl-ethyl]-2-benzenesulfonylamino-3-(4-ethoxy-phenyl)-propionamide]	–	470	> 235	2200	–
CN(C(=O)[C@@H](CC1CCCCC1)NCC(=O)O)[C@@H](Cc1ccccc1)C(=O)NCc1ccc(CN)cc1 [Example 30, ((R)-1-{[(S)-1-(4-Aminomethyl-benzylcarbamoyl)-2-phenyl-ethyl]-methyl-carbamoyl}-2-cyclohexyl-ethylamino)-acetic acid]	–	580	> 235	> 10000	–
CCOc1ccc(C[C@@H](N)C(=O)N(C)[C@@H](Cc2ccccc2)C(=O)NCc2ccc(CN)cc2)cc1 [Example 25, (R)-2-Amino-N-[(S)-1-(4-aminomethyl-benzylcarbamoyl)-2-phenyl-ethyl]-3-(4-ethoxy-phenyl)-N-methyl-propionamide]	–	340	> 235	6300	–
CCCN(CCC)[C@H](CC1CCCCC1)C(=O)N[C@@H](Cc1ccccc1)C(=O)NCc1ccc(CN)cc1 [Example 53, (R)-N-[(S)-1-(4-Aminomethyl-benzylcarbamoyl)-2-phenyl-ethyl]-3-cyclohexyl-2-dipropylamino-propionamide]	–	650	> 235	> 10000	–
CCOc1ccc(C[C@@H](NC(C)=O)C(=O)N(C)[C@@H](Cc2ccccc2)C(=O)NCc2ccc(CN)cc2)cc1 [Example 39, (R)-2-Acetylamino-N-[(S)-1-(4-aminomethyl-benzylcarbamoyl)-2-phenyl-ethyl]-3-(4-ethoxy-phenyl)-N-methyl-propionamide]	–	310	> 235	> 10000	–
CCOc1ccc(C[C@@H](NC(=O)c2ccccc2)C(=O)N[C@@H](Cc2c[nH]c3ccccc23)C(=O)NCc2ccc(CN)cc2)cc1 [Example 176, N-[(R)-1-[(S)-1-(4-Aminomethyl-benzylcarbamoyl)-2-(1H-indol-3-yl)-ethylcarbamoyl]-2-(4-ethoxy-phenyl)-ethyl]-benzamide]	2.28 (≈ 3.69 µM)	–	–	–	–
CN(CC(=O)O)[C@H](CC1CCCCC1)C(=O)N[C@@H](Cc1ccc(Cl)c(Cl)c1)C(=O)NCc1ccc(CN)c(F)c1 [Example 43, ({(R)-1-[(S)-1-(4-Aminomethyl-3-fluoro-benzylcarbamoyl)-2-(3,4-dichloro-phenyl)-ethylcarbamoyl]-2-cyclohexyl-ethyl}-methyl-amino)-acetic acid]	–	1300	> 235	> 10000	–
CCCN[C@H](CC1CCCCC1)C(=O)N[C@@H](Cc1ccccc1)C(=O)NCc1ccc(CN)cc1 [Example 37, (R)-N-[(S)-1-(4-Aminomethyl-benzylcarbamoyl)-2-phenyl-ethyl]-3-cyclohexyl-2-propylamino-propionamide]	–	910	> 235	> 10000	–
CCOc1ccc(C[C@@H](NC(=O)C(C)C)C(=O)N(C)[C@@H](Cc2ccccc2)C(=O)NCc2ccc(CN)cc2)cc1 [Example 44, N-[(R)-1-{[(S)-1-(4-Aminomethyl-benzylcarbamoyl)-2-phenyl-ethyl]-methyl-carbamoyl}-2-(4-ethoxy-phenyl)-ethyl]-isobutyramide]	–	180	> 235	> 10000	–
CN(CC(=O)O)[C@H](CC1CCCCC1)C(=O)N[C@@H](Cc1ccccc1)C(=O)NCc1ccc(CN)cc1 [Example 29, ({(R)-1-[(S)-1-(4-Aminomethyl-benzylcarbamoyl)-2-phenyl-ethylcarbamoyl]-2-cyclohexyl-ethyl}-methyl-amino)-acetic acid]	–	300	> 235	> 10000	–
CN[C@H](CC1CCCCC1)C(=O)N[C@@H](Cc1ccccc1)C(=O)NCc1ccc(CN)c(F)c1 [Example 40, (R)-N-[(S)-1-(4-Aminomethyl-3-fluoro-benzylcarbamoyl)-2-phenyl-ethyl]-3-cyclohexyl-2-methylamino-propionamide]	–	1800	> 235	> 10000	–
CCOc1ccc(C[C@@H](NC(=O)CC)C(=O)N[C@@H](Cc2ccccc2)C(=O)N(C)Cc2ccc(CN)cc2)cc1 [Example 24, (S)-N-(4-Aminomethyl-benzyl)-2-[(R)-3-(4-ethoxy-phenyl)-2-propionylamino-propionylamino]-N-methyl-3-phenyl-propionamide]	–	450	> 235	> 10000	–
NCc1ccc(CNC(=O)[C@H](Cc2ccc(Cl)c(Cl)c2)NC(=O)[C@H](N)CC2CCCCC2)cc1 [Example 20, (R)-2-Amino-N-[(S)-1-(4-aminomethyl-benzylcarbamoyl)-2-(3,4-dichloro-phenyl)-ethyl]-3-cyclohexyl-propionamide]	–	730	> 235	3700	–
CN[C@H](CC1CCCCC1)C(=O)N[C@@H](Cc1ccccc1)C(=O)NCc1ccc(CN)cc1 [Example 33, (R)-N-[(S)-1-(4-Aminomethyl-benzylcarbamoyl)-2-phenyl-ethyl]-3-cyclohexyl-2-methylamino-propionamide]	–	1100	> 235	> 10000	–
CCC(=O)N[C@H](CC1CCCCC1)C(=O)N[C@@H](Cc1ccc(Cl)c(Cl)c1)C(=O)NCc1ccc(CN)cc1 [Example 21, (R)-N-[(S)-1-(4-Aminomethyl-benzylcarbamoyl)-2-(3,4-dichloro-phenyl)-ethyl]-3-cyclohexyl-2-propionylamino-propionamide]	–	5100	–	10000	12 (≈ 6.74 µg/mL)
NCc1ccc(CNC(=O)[C@H](Cc2ccc(Cl)c(Cl)c2)NC(=O)[C@H](N)Cc2ccc(C(F)(F)F)cc2)cc1 [Example 18, (R)-2-Amino-N-[(S)-1-(4-aminomethyl-benzylcarbamoyl)-2-(3,4-dichloro-phenyl)-ethyl]-3-(4-trifluoromethyl-phenyl)-propionamide]	–	8800	> 235	1600	–
CCOc1ccc(C[C@@H](NC(=O)CC)C(=O)N[C@@H](Cc2ccccc2)C(=O)NCc2ccc(CN)cc2)cc1 [Example 1, (S)—N-(4-Aminomethyl-benzyl)-2-[(R)-3-(4-ethoxy-phenyl)-2-propionylamino-propionylamino]-3-phenyl-propionamide]	–	89	> 235	> 1000	–
